Experimental data reported in US20140178305A1, “IDENTIFICATION AND USE OF ANXIOLYTIC COMPOUNDS” (CALIFORNIA INSTITUTE OF TECHNOLOGY, priority 2012, published 2014).
“Also recorded” adds a separate entry of the source.

How the values were obtained:
[1] = system: MRGPRB4+ spinal afferent fibres co-expressing GCaMP3.0 and hM3DREADD; assay: Calcium imaging after spinal application of CNO in MrgprB4+ fibres expressing hM3DREADD and GCaMP3.0; assay type: in vivo, mouse; settings: CNO 1.5 mM, mice co-injected with GCaMP3.0 and hM3DREADD viruses
Procedure: KCl, final concentration (60 mM), α,β-methyl ATP (5 mM) and CNO (1.5 mM) were delivered manually to the imaging bath using a pipetman pipette.
The stimuli used to activate MRGPRB41 fibres were designed to mimic stroking and allogrooming stimuli. […] To determine whether direct activation of MRGPRB41 neurons could similarly promote a preference for the location in which this stimulation occurred, a pharmacogenetic strategy was used. Juvenile (1-month-old) Mrgprb4-cre male mice were injected neonatally with an AAV encoding the hM3-(Gq-coupled)DREADD19, the activation of which by clozapine-N-oxide (CNO) causes membrane depolarization (FIG. 4a).
Spinal application of CNO was employed to image activation of hM3DREADD and GCaMP3.0-expressing MrgprB4^+ fibers. The low probability of double-infection of individual MrgprB4^+ neurons with both the GCaMP3.0 and hM3DREADD Cre-dependent viruses (˜30%), taken together with the difficulty of identifying sites for focal peripheral injection corresponding to specific MrgprB4^+ central afferent fibers visualized in the spinal cord, precluded peripheral delivery of CNO for this assay.

[2] = system: MRGPRD+ neurons (hM3DREADD); assay: Conditioned place aversion (CPA) assay with CNO; assay type: in vivo, mouse; settings: CNO and DREADD, separate experiments, data not shown
Source text: Because our hypothesis is based on the social reward mediated by social contact in juvenile mice, the mice used were approximately 1-month old. After weaning the mice were maintained in social groups and left undisturbed until the start of the CPP assay. The paradigm was completed in 6 days. On the day before pre-testing the mice were socially isolated in their home cage. On day 1 of the procedure each mouse was placed in the central compartment and allowed to explore the entire apparatus freely for 30 min (pre-test). After the pre-test the initial preference of each mouse for a given side compartment was recorded. […] Conditioning was initiated on day 2 and encompassed four sessions performed on four consecutive days. In the first conditioning session mice were injected i.p. with CNO (5 mg kg) (or saline of an equivalent volume for some control mice) and placed for 1 h (based on the observation that CNO effects peak between 45 and 50 min after administration) in the initially non-preferred (I.N.P.) compartment. On day 3, during the second conditioning session, all mice were injected with saline and confined for 1 hr in the opposite (that is, initially preferred, I.P.) compartment. (The second conditioning session was performed the following day as CNO effects last for 9 hrs.) On day 4 and day 5 the first and second conditioning sessions were repeated, respectively. […]

C[N+]1([O-])CCN(C2=Nc3cc(Cl)ccc3Nc3ccccc32)CC1 [CNO, Clozapine-N-oxide]
calcium transients after application to the spinal cord [1]: able to induce calcium transients; also recorded: robust calcium transients | conditioned place aversion (CPA) [2]: nor (in separate experiments) conditioned place aversion
